# Measurements as given in patent publication US11679107B2 (Eisai R&D Management Co., Ltd., priority 2018, dated 2023).
# Like-named read-outs stand apart in the source and are kept apart here.
# Tests used:
# [1] = test system: Ad2 variant pre-mRNAs spliced in HeLa S3 nuclear extracts; experiment: In vitro splicing assay (IVS), RT-qPCR of spliced product; type: biochemical; settings: for IC50: geometric mean
# Procedure, shortened: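 Read-out is one-step TaqMan RT-qPCR of spliced Ad2 mRNA with Ftz as reference, normalized to DMSO and fit by non-linear regression. Reactions held HeLa S3 nuclear extract, 2 ng Ad2-derived pre-mRNA and test compound, with 15 min preincubation. Splicing was started with ATP-containing activation buffer and run 90 min at 30 °C.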
# [2] = test system: NCI-H1568 cells (high MCL1); experiment: Cell proliferation and viability, CellTiter-Glo, 72 hours; type: cell-based; settings: for GI50: geometric mean
# Procedure, shortened: (§1)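 RPMI-1640/10% FBS (Panc: + insulin, FBS 15%); 11-pt half-log dose, ~10 μM-100 pM, 0.1% DMSO; 37° C, 5% CO2; ATP luminescence read; % inhibition vs T0 and vehicle, −100% cidal to 100% uninhibited growth.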
# [3] = test system: Panc 05.04 cells (SF3b K700E mutant); experiment: as above; type: cell-based; settings: for GI50: geometric mean
# Procedure, shortened: as §1
# SF3b complexes = biological target: T1, SF3b complexes (Homo sapiens, UniProt O75533+Q7RTV0); experiment: Scintillation proximity assay (SPA) with [3H]-labelled pladienolide probe; type: binding; settings: SF3B1 (WT); geometric mean; read-out: SPA-ATS GMean IC50 (nM) SF3B1 (WT)
# T1 construct: endogenous in cells; host or cells: Nuclear extracts; A HeLa S3 extract preparation is described for the in vitro splicing assay
# Procedure, shortened: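 SF3b complexes captured from nuclear extracts on anti-SF3B1 antibody SPA beads; test compounds pre-incubated 30 min before 2.5 nM [3H]-pladienolide probe added, then 30 min incubation. Bound probe read by scintillation; values from non-linear regression of concentration–response curves.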
# [4] = Ad2.1 pre-mRNA substrate, read-out: qPCR-IVS-ATS GMean IC50 (nM) Ad2.1
# [5] = Ad2.2 pre-mRNA substrate, read-out: qPCR-IVS-ATS GMean IC50 (nM) Ad2.2
# [6] = NCI-H1568, 72 h, read-out: CTGlo-ATS GMean GI50 (nM) 72 h NCIH1568.1, NCIH1568.1 cells, 72 h
# [7] = NCIH1568.1 cells, 72 h, −100% cidal, 0% static, 100% maximal growth
# [8] = PANC0504.1 cells, 72 h, −100% cidal, 0% static, 100% maximal growth
# [9] = Panc 05.04, 72 h, read-out: CTGlo-ATS GMean GI50 (nM) 72 h PANC0504.1, PANC0504.1 cells, 72 h
# [10] = NCI-H1568, read-out: CTGlo-ATS GMean GI50 (nM) 72 h NCIH1568.1, NCIH1568.1 cells, 72 h
# [11] = Panc 05.04, read-out: CTGlo-ATS GMean GI50 (nM) 72 h PANC0504.1, PANC0504.1 cells, 72 h
Structure (SMILES),"IC50 [1, 4] [nM]","IC50 [1, 5] [nM]",Ratio Ad2.1/2.2 ([1]; ratio of IVS IC50 Ad2.1 to Ad2.2),"CTGlo-ATS Mean MinResponse % 72 h NCIH1568.1 ([2]; 72 h, NCIH1568.1, -100% = cidal, 0% = static, 100% = uninhibited growth) [%]","GI50 ([2]; NCI-H1568, read-out: CTGlo-ATS GMean GI50 (nM) 72 h NCIH1568.1, 72 h, NCIH1568.1) [nM]","CTGlo-ATS Mean MinResponse % 72 h PANC0504.1 ([3]; 72 h, PANC0504.1, -100% = cidal, 0% = static, 100% = uninhibited growth) [%]","GI50 ([3]; Panc 05.04, read-out: CTGlo-ATS GMean GI50 (nM) 72 h PANC0504.1, 72 h, PANC0504.1) [nM]",IC50 (SF3b complexes) [nM],"GI50 [2, 6] [nM]","CTGlo-ATS Mean MinResponse % 72 h NCIH1568.1 [2, 7] [%]","CTGlo-ATS Mean MinResponse % 72 h PANC0504.1 [3, 8] [%]","GI50 [3, 9] [nM]","GI50 [2, 10] [nM]","GI50 [3, 11] [nM]"
"C/C(=C\c1cccc(S(=O)(=O)N2CCN(C)CC2)c1)[C@H]1OC(=O)C[C@H](O)CC[C@H](C)[C@@H](OC(=O)N2CCN(C)CC2)/C=C/[C@@H]1C [Compound 211, [(2S,3S,4E,6R,7S,10R)-10-hydroxy-3,7-dimethyl-2-[(E)-1-[3-(4-methylpiperazin-1-yl)sulfonylphenyl]prop-1-en-2-yl]-12-oxo-1-oxacyclododec-4-en-6-yl] 4-methylpiperazine-1-carboxylate]",651,83.4,7.806,−52.358,60.6,−91.820,47.6,11.9,,,,,,
C/C(=C\c1ccc2ccnc(O)c2c1)[C@H]1OC(=O)C[C@H](O)CC[C@H](C)[C@@H](OC(=O)N2CCN(C)CC2)/C=C/[C@@H]1C [Compound 127],> 25000,452,,,,,,19.1,835,−18.734,11.995,1070,,
CC[C@H](O)[C@@H](C)CN1CCN(c2cc(F)cc(/C=C(\C)[C@H]3OC(=O)C[C@H](O)CC[C@H](C)[C@@H](OC(=O)N4CCN(C)CC4)/C=C/[C@@H]3C)c2)CC1 [Compound 71],29.7,18.9,,,,,,3.71,,−92.527,−68.599,,6.39,11.5
C/C(=C\c1cc(F)cc(N2CCN(S(=O)(=O)C3COC3)CC2)c1)[C@H]1OC(=O)C[C@H](O)CC[C@H](C)[C@@H](OC(=O)N2CCN(C)CC2)/C=C/[C@@H]1C [Compound 125],17.6,14.9,,,,,,5.06,,−83.586,−83.226,,4.51,6.76
C/C(=C\c1cc(F)c2cnn(CC(=O)N3CCCC3)c2c1)[C@H]1OC(=O)C[C@H](O)CC[C@H](C)[C@@H](OC(=O)N2CCN(C)CC2)/C=C/[C@@H]1C [Compound 129],32,15.6,,,,,,4.38,,−70.909,−94.183,,4.73,11.3
C/C(=C\c1cc(F)cc(N2CCN(CCN3CCOCC3)C2=O)c1)[C@H]1OC(=O)C[C@H](O)CC[C@H](C)[C@@H](OC(=O)N2CCN(C)CC2)/C=C/[C@@H]1C [Compound 67],22.7,20.2,,,,,,1.95,,−75.182,−87.661,,8.6,7.27
C/C(=C\c1cc(F)cc(N(C)C2CCN(C)CC2)c1)[C@H]1OC(=O)C[C@H](O)CC[C@H](C)[C@@H](OC(=O)N2CCN(C)CC2)/C=C/[C@@H]1C [Compound 31],50.1,14.6,,,,,,43.2,,−98.108,−90.716,,89.4,53
C/C(=C\c1cc(F)cc(N2CCOCC2)c1)[C@H]1OC(=O)C[C@H](O)CC[C@H](C)[C@@H](OC(=O)N(C)C2CN3CCC2CC3)/C=C/[C@@H]1C (stereo partly drawn) [Compound 98],159,35.9,,,,,,3.45,11.5,−75.954,−87.759,10.3,,
C/C(=C\c1cc(F)cc(N2CCOC[C@@H]2CO)c1)[C@H]1OC(=O)C[C@H](O)CC[C@H](C)[C@@H](OC(=O)N2CCN(C)CC2)/C=C/[C@@H]1C [Compound 77],16.1,13.3,,,,,,1.78,,−82.189,−86.524,,1.79,3.9
C/C(=C\c1cnn(C)c1)[C@H]1OC(=O)C[C@H](O)CC[C@H](C)[C@@H](OC(=O)N2CCN(C)CC2)/C=C/[C@@H]1C [Compound 103],> 25000,4260,,,,,,258,> 10000,78.168,80.958,> 10000,,
CN[C@H]1CCN(c2cc(F)cc(/C=C(\C)[C@H]3OC(=O)C[C@H](O)CC[C@H](C)[C@@H](OC(=O)N4CCN(C)CC4)/C=C/[C@@H]3C)c2)C1 [Compound 39],63.1,32,,,,,,26,,−97.412,−89.747,,45.6,50.1
"C/C(=C\c1cc(S(=O)(=O)N2CCC(O)CC2)ccc1F)[C@H]1OC(=O)C[C@H](O)CC[C@H](C)[C@@H](OC(=O)N2CCN(C)CC2)/C=C/[C@@H]1C [Compound 91, [(2S,3S,4E,6R,7S,10R)-2-[(E)-1-[2-fluoro-5-(4-hydroxypiperidin-l-yl)sulfonylphenyl]prop-1-en-2-yl]-10-hydroxy-3,7-dimethyl-12-oxo-1-oxacyclododec-4-en-6-yl] 4-methylpiperazine-1-carboxylate]",14.7,18.9,,,,,,6.04,,−64.491,−90.776,,6.86,4.64
C/C(=C\c1cc(F)c2cnn(C3CCOCC3)c2c1)[C@H]1OC(=O)C[C@H](O)CC[C@H](C)[C@@H](OC(=O)N2CCN(C)CC2)/C=C/[C@@H]1C [Compound 116],25,19.2,,,,,,4.45,,−90.483,−76.511,,1.55,2.2
C/C(=C\c1cc(F)c2c(c1)nnn2CC1CC1)[C@H]1OC(=O)C[C@H](O)CC[C@H](C)[C@@H](OC(=O)N2CCN(C)CC2)/C=C/[C@@H]1C [Compound 139],> 25000,93.2,,,,,,4.32,,−61.022,−21.195,,142,240
CNC(=O)[C@H]1CN(c2cc(F)cc(/C=C(\C)[C@H]3OC(=O)C[C@H](O)CC[C@H](C)[C@@H](OC(=O)N4CCN(C)CC4)/C=C/[C@@H]3C)c2)CCO1 [Compound 78],24.3,13.8,,,,,,1.76,,−74.454,−93.916,,2.5,7.33
C/C(=C\c1cc(C)cc(N2CCOCC2)c1)[C@H]1OC(=O)C[C@H](O)CC[C@H](C)[C@@H](OC(=O)N2CCN(C)CC2)/C=C/[C@@H]1C [Compound 18],77.5,34.3,,,,,,16.7,,−60.339,−83.683,,26.1,19.9
C/C(=C\c1cc(F)cc(N2CCS(=O)(=O)CC2)c1)[C@H]1OC(=O)C[C@H](O)CC[C@H](C)[C@@H](OC(=O)N2CCN(C)CC2)/C=C/[C@@H]1C [Compound 52],39.6,45.4,,,,,,8.3,23.3,−63.079,−76.609,13.6,,
